Measured values published in patent US6551632B2, “Methods and compositions for treating inflammatory bowel disease” (priority 1997, dated 2003).

System: Patients with Inflammatory Bowel Disease
Assay: Treatment of patients with inflammatory bowel disease using a combination of anti-atypical mycobacterial agents (Example 1)
Procedure: Fifteen patients, aged 13 to 58, were treated with various protocols of antimycobacterial agents. Twelve patients had Crohn's disease and three ulcerative colitis. Presence of Mycobacterium paratuberculosis was identified in nine of these patients. A combination of clarithromycin (250 mg to 1.5 grams per day), rifabutin (150 mg to 750 mg per day) and clofazimine (3 mg/kg to 10 mg/kg) was used.
After four months of treatment, five patients were examined colonoscopically.
In these three patients, a combination of clarithromycin and rifabutin (same dosages as above) together with added clofazimine, 2 mg per kg, made up a preferred therapy. […] No prednisone, azathioprine or 5ASA compounds were used. […] This dose was increased at one stage to 50 mg per kg in an attempt to reverse the inflammatory process and then reduced to 10 mg per kg. […] In yet a further patient four drugs were used simultaneously because of resistance to clarithromycin. Azithromycin, 500 mg each morning (range 250-1,500 mg) was used in combination with rifabutin, clofazimine, and ethambutol.

SMILES: CC[C@@H](CO)NCCN[C@@H](CC)CO [ethambutol]
- clinical response after rifabutin was changed to ethambutol (one patient, ethambutol 400 mg twice daily, raised to 50 mg per kg, then 10 mg per kg, with clarithromycin and clofazimine): reversal of the inflammatory process with loss of diarrhoea, loss of bleeding, and ultimately loss of urgency

SMILES: CO[C@H]1/C=C/O[C@@]2(C)Oc3c(C)c(O)c4c(c3C2=O)C2=NC3(CCN(CC(C)C)CC3)NC2=C(NC(=O)/C(C)=C\C=C\[C@H](C)[C@H](O)[C@@H](C)[C@@H](O)[C@@H](C)[C@H](OC(C)=O)[C@@H]1C)C4=O [rifabutin]
- sensitivity (adverse reaction) (one patient on the combination therapy): marked headaches and fever
